Values after ≈ are worked out from the molar mass of the structure shown.
Columns and labels:
[1] = system: Candida albicans ATCC 10231; experiment: Antifungal activity against Candida albicans (serial dilution MIC); format: cell-based; conditions: 48 hours at 30° C., absorbance at 600 nm; for MIC: Candida albicans, ATCC10231
Procedure: Candida albicans ATCC 10231, as an indicator strain, is activated for 3 days at 30° C. on the Sabouraud solid medium, and then amplified for 2 days at 30° C. and 180 rpm in the Sabouraud liquid medium to obtain an indicator liquid for antifungal activity testing.
An outermost ring of a 96-well plate is filled with 100 μL of the Sabouraud liquid medium for blank culture to prevent contamination; a first well of the 96-well plate is added with samples and the indicator liquid, with a total solution volume of 200 μL and a sample concentration of 128 μg/mL in the first well. A “serial dilution method” is used to achieve sample concentrations of 64, 32, 16, 8, 4, 2, 1, 0.5, and 0.25 μg/mL respectively in subsequent wells. Each sample has three parallel controls, and is incubated for 48 hours at 30° C. Then, the absorbance of the indicator liquid is measured at 600 nm using a microplate reader, and minimum inhibitory concentrations (MIC) of the compounds are recorded. The samples are the compound I, the compound II, and the compound III, with Amphotericin B as the control.

[2] = system: human brain glioma cell line (HEB); experiment: SRB tumor cell growth inhibition, HEB; format: cell-based; conditions: 72 h, 3 days, read-out: human brain glioma cell line HEB growth inhibition rate %
Text: (§1) A Sulforhodamine B (SRB) colorimetric method is used to perform in vitro growth inhibition experiments on tumor cells with the isolated monomeric compounds A human brain glioma cell line (HEB) and a human hepatocellular carcinoma cell line (Hep-G2) both from Cell Resource Center, Institute of Basic Medical Sciences ([…]), China. Tumor cells in a logarithmic growth phase are selected and digested with trypsin followed by adjusting a cell concentration to 2×10^4 cells/mL with a Roswell Park memorial institute 1640 (RPMI 1640) medium containing 10% fetal bovine serum to obtain a tumor cell suspension. Sample solutions: the compound I, the compound II, and the compound III prepared in the embodiment 3 are separately added with DMSO to prepare 200 μM of the sample solutions. Control antibiotic solution: The antibiotic 5-fluorouracil (5-FU) is diluted with DMSO to prepare 100 μM of the control antibiotic solution. The tumor cell suspensions in Table 11 are inoculated into a 96-well culture plate at 190 μL per well, and then incubated at 37° C. with 5% carbon dioxide (CO2) for 24 hours. The culture wells are divided into drug wells, control wells, and blank wells. […] The blank wells are added with 10 μL of the RPMI 1640 medium containing 10% fetal bovine serum and an equal volume of DMSO as a solvent. The 96-well culture plate is then at 37° C. with 5% CO2 for incubation for 3 days followed by removing culture medium. Then, each well of the 96-well culture plate is slightly added with 100 μL of the 50% TCA solution pre-cooled at 4° C., and then allowed to stand for 5 min, followed by moving the 96-well culture plate to 4° C. for 1 hour to fix cells to obtain a cell-fixed plate. After discarding the fixing solution from the cell-fixed plate, the wells of the cell-fixed plate are washed five times with distilled water to remove TCA and then air-dried for 1 hour to obtain a first dried plate. Each well of the first dried plate is added with 80 μL of the 0.4% SRB solution for staining at room temperature for 30 min to obtain a stained plate. After discarding the staining solution of the stained plate, the stained plate is washed five times by 1% acetic acid aqueous solution to fully remove unbound SRB and then air-dried for 1 hour to obtain a second dried plate. Each well of the second dried plate is added with 150 μL of the 10 mM Tris-based solution for dissolving, and then oscillated for 5 min on a mini shaker (Mini shaker Kylin-Bell Lab instruments) to obtain an oscillated plate. Samples from each well of the oscillated plate are taken and an OD value at 570 nm is measured for each sample by using an M5 microplate reader.

[3] = system: human hepatocellular carcinoma cell line (Hep-G2); experiment: SRB tumor cell growth inhibition, Hep-G2; format: cell-based; conditions: HepG2, 72 h, 3 days, read-out: human hepatocellular carcinoma cell line Hep-G2 growth inhibition rate %
Text: as §1

[4] = DPPH antioxidant activity test; format: biochemical; conditions: for Antioxidant activity IC50 value: DPPH scavenging, 37° C. half an hour
Procedure: 1 mg of solid DPPH is dissolved in 24 mL of methanol and then ultrasonicated for 5 min, followed by shaking thoroughly to obtain DPPH solution to ensure uniformity throughout the DPPH solution. 1 mL of the DPPH solution is taken and diluted by adding 0.5 mL of 95% methanol to obtain a diluted solution with an absorbance in a range of 0.6-1.0. The samples are added with methanol to prepare 1 mg/mL of sample solutions. The sample solutions are separately added to the DPPH solution while mixing continuously with a small start amount to obtain mixed solutions and an addition amount of the sample solutions gradually increases. Solution decolorization is observed when adding the sample solutions. When color of the mixed solutions has essentially faded, a maximum amount of the added sample solution is recorded. Based on the maximum amount, five additional amounts are set in an arithmetic sequence moving backwards. A final measurement is performed according to the arithmetic sequence, and for each amount, three parallel data points are measured. An absorbance value (A value) at each amount may be measured after placing the mixed solutions in a 37° C. oven for half an hour. An experimental antioxidant concentration serves as an x-axis and a scavenging rate serves as a y-axis, then a linear regression equation is calculated. 50% scavenging rate is substituted into the linear regression equation to obtain a corresponding x-axis value, which is a half-maximal inhibitory concentration (IC50) value. The samples are the compound I, the compound II, and the compound III, with vitamin C (Vc) as the control. The scavenging rate=((A0−A)/A0)×100; where A0 represents a value before adding the sample solutions, and A represents a value after adding the sample solutions.

[5] = according to literature searches; cited from earlier work
[6] = system: silkworms and American moths; conditions: against silkworms and American moths; literature; cited from earlier work
Candida albicans = conditions: reported in literature; cited from earlier work

| SMILES | MIC [1] [µg/mL] | antioxidant activity (in words) [4] | Antioxidant activity IC50 value [4] [µg/mL] | inhibition at 10 µM [2] [%] | inhibition at 10 µM [3] [%] | other results |
| --- | --- | --- | --- | --- | --- | --- |
| C[C@@H]1[C@H](O)[C@@H](C)/C=C/C=C/C=C/C=C/C=C/C=C/C=C/[C@H](O[C@@H]2O[C@H](C)[C@@H](O)[C@H](N)[C@@H]2O)C[C@@H]2O[C@](O)(C[C@@H](O)C[C@@H](O)[C@H](O)CC[C@@H](O)C[C@@H](O)CC(=O)O[C@H]1C)C[C@H](O)[C@H]2C(=O)O [Amphotericin B, reference compound] |  |  |  |  |  | MIC value against the Candida albicans ATCC 10231 [1]: 2 µg/mL (≈ 2.16 µM) |
| O=c1[nH]cc(F)c(=O)[nH]1 [Compound 5-FU, 5-fluorouracil, reference compound] |  |  |  |  |  | inhibition at 5 µM ([2]; positive control, 5 μM): 69.5%; inhibition at 5 µM ([3]; positive control, 5 μM): 71.3% |
| C/C=C/C=C/C=C/C(=O)N[C@H]1CCCNC(=O)[C@H](C)N(C)C(=O)[C@H](C(C)C)N(C)C1=O [Compound I, aspochracin] | > 128 | moderate antioxidant activity | 420 | -19.9 | -17.9 | mammalian toxicity [5]: extremely low mammalian toxicity; insecticidal activity [6]: recognized insecticidal activity |
| C/C=C/C=C/C=C/C(=O)N[C@H]1CCCNC(=O)[C@H](C)NC(=O)[C@H](C(C)C)N(C)C1=O [Compound II, JBIR-15] | 32 (≈ 76.5 µM) | moderate antioxidant activity | 400 | -6.04 | 11.8 | anti-Candida albicans activity, minimum inhibitory concentration (MIC) (Candida albicans): 30 µg/mL |
| C/C=C/C=C/C=C/C(=O)N[C@H]1CCCCNC(=O)[C@H](C)N(C)C(=O)[C@H](C(C)C)N(C)C1=O [Compound III, sclerotiotide C] | > 128 | moderate antioxidant activity | 430 | -13.7 | 21.1 |  |
| O=C1O[C@H]([C@@H](O)CO)C(O)=C1O [Vc, vitamin C, reference compound] |  |  | 9 |  |  |  |
